Laboratory results published in patent US11319299B2, “Substituted carboxamides as inhibitors of WDR5 protein-protein binding” (PROPELLON THERAPEUTICS INC., priority 2016, dated 2022).

molecular target: WDR5 (Homo sapiens (Human), UniProt P61964); assay: Surface Plasmon Resonance (SPR) assay, KD and residence time; type: binding; conditions: surface plasmon resonance (SPR); read-out: WDR5 binding affinity (KD)

SMILES	Kd
C[C@@H]1CN(c2cc(F)c(C3=CCCN(c4ncc(C#N)s4)C3)cc2NC(=O)c2c[nH]c(=O)cc2C(F)(F)F)C[C@H](C)N1C [Example 615, N-[5-[1-(5-cyano-1,3-thiazol-2-yl)-3,6-dihydro-2H-pyridin-5-yl]-4-fluoro-2-[(3R,5S)-3,4,5-trimethylpiperazin-1-yl]phenyl]-6-oxo-4-(trifluoromethyl)-1H-pyridine-3-carboxamide]	0.375 nM
C[C@@H]1CN(c2cc(F)c(-c3csc(N4CCOCC4)n3)cc2NC(=O)c2c[nH]c(=O)cc2C(F)(F)F)C[C@H](C)N1C [Example 616, N-[4-fluoro-5-(2-morpholin-4-yl-1,3-thiazol-4-yl)-2-[(3R,5S)-3,4,5-trimethylpiperazin-1-yl]phenyl]-6-oxo-4-(trifluoromethyl)-1H-pyridine-3-carboxamide]	0.748 nM
C[C@@H]1CN(c2cc(F)c(-c3cnc(N4CCOCC4)s3)cc2NC(=O)c2c[nH]c(=O)cc2C(F)(F)F)C[C@H](C)N1C [Example 619, N-[4-fluoro-5-(2-morpholin-4-yl-1,3-thiazol-5-yl)-2-[(3R,5S)-3,4,5-trimethylpiperazin-1-yl]phenyl]-6-oxo-4-(trifluoromethyl)-1H-pyridine-3-carboxamide]	0.948 nM
C[C@@H]1CN(c2cc(F)c(-c3csc(N4CCOCC4)n3)cc2NC(=O)c2cn(C)c(=O)cc2C(F)F)C[C@H](C)N1C [Example 622, 4-(difluoromethyl)-N-[4-fluoro-5-(2-morpholin-4-yl-1,3-thiazol-4-yl)-2-[(3R,5S)-3,4,5-trimethylpiperazin-1-yl]phenyl]-1-methyl-6-oxopyridine-3-carboxamide]	5.15 nM
C[C@@H]1CN(c2cc(F)c(-c3cnc(N4CCOCC4)s3)cc2NC(=O)c2cn(C)c(=O)cc2C(F)F)C[C@H](C)N1C [Example 623, 4-(difluoromethyl)-N-[4-fluoro-5-(2-morpholin-4-yl-1,3-thiazol-5-yl)-2-[(3R,5S)-3,4,5-trimethylpiperazin-1-yl]phenyl]-1-methyl-6-oxopyridine-3-carboxamide]	5.57 nM
C[C@@H]1CN(c2cc(F)c(-c3cc(C(=O)NC(C)(C)CC(C)(C)C)c(F)cc3F)cc2NC(=O)c2c[nH]c(=O)cc2C(F)(F)F)C[C@H](C)N1C [Example 626, N-[5-[2,4-difluoro-5-(2,4,4-trimethylpentan-2-ylcarbamoyl)phenyl]-4-fluoro-2-[(3R,5S)-3,4,5-trimethylpiperazin-1-yl]phenyl]-6-oxo-4-(trifluoromethyl)-1H-pyridine-3-carboxamide]	5.24 nM
C[C@@H]1CN(c2cc(F)c(-c3cc(C(=O)NC(C)(C)CC(C)(C)C)c(F)cc3F)cc2NC(=O)c2c[nH]c(=O)cc2C(F)F)C[C@H](C)N1C [Example 627, 4-(difluoromethyl)-N-[5-[2,4-difluoro-5-(2,4,4-trimethylpentan-2-ylcarbamoyl)phenyl]-4-fluoro-2-[(3R,5S)-3,4,5-trimethylpiperazin-1-yl]phenyl]-6-oxo-1H-pyridine-3-carboxamide]	23.3 nM
C[C@@H]1CN(c2cc(F)c(-c3cc(C(N)=O)c(F)cc3F)cc2NC(=O)c2c[nH]c(=O)cc2C(F)(F)F)C[C@H](C)N1C [Example 632, N-[5-(5-carbamoyl-2,4-difluorophenyl)-4-fluoro-2-[(3R,5S)-3,4,5-trimethylpiperazin-1-yl]phenyl]-6-oxo-4-(trifluoromethyl)-1H-pyridine-3-carboxamide]	11.4 nM
C[C@@H]1CN(c2cc(F)c(-c3cc(C(N)=O)c(F)cc3F)cc2NC(=O)c2c[nH]c(=O)cc2C(F)F)C[C@H](C)N1C [Example 633, N-[5-(5-carbamoyl-2,4-difluorophenyl)-4-fluoro-2-[(3R,5S)-3,4,5-trimethylpiperazin-1-yl]phenyl]-4-(difluoromethyl)-6-oxo-1H-pyridine-3-carboxamide]	11.9 nM
C[C@@H]1CN(c2cc(F)c(-c3cc(C(N)=O)c(F)cc3F)cc2NC(=O)c2ccc(F)cc2C(F)(F)F)C[C@H](C)N1C [Example 634, 2,4-difluoro-5-[2-fluoro-5-[[4-fluoro-2-(trifluoromethyl)benzoyl]amino]-4-[(3R,5S)-3,4,5-trimethylpiperazin-1-yl]phenyl]benzamide]	69.5 nM
C[C@@H]1CN(c2cc(F)c(-c3cnc(N4CCC(C)(O)CC4)nc3)cc2NC(=O)c2ccc(F)cc2C(F)(F)F)C[C@H](C)N1C [Example 636, 4-Fluoro-N-[4-fluoro-5-[2-(4-hydroxy-4-methylpiperidin-1-yl)pyrimidin-5-yl]-2-[(3R,5S)-3,4,5-trimethylpiperazin-1-yl]phenyl]-2-(trifluoromethyl)benzamide]	1.42 nM
C[C@@H]1CN(c2ncc(-c3cc(NC(=O)c4cn(C)c(=O)cc4C(F)(F)F)c(N4C[C@@H](C)N(C)[C@@H](C)C4)cc3F)cn2)CCO1 [Example 640, N-[4-fluoro-5-[2-[(2R)-2-methylmorpholin-4-yl]pyrimidin-5-yl]-2-[(3R,5S)-3,4,5-trimethylpiperazin-1-yl]phenyl]-1-methyl-6-oxo-4-(trifluoromethyl)pyridine-3-carboxamide]	1.74 nM
C[C@@H]1CN(c2cc(F)c(-c3cnc(N4CCC(C)(O)CC4)nc3)cc2NC(=O)c2cn(C)c(=O)cc2C(F)(F)F)C[C@H](C)N1C [Example 641, N-[4-fluoro-5-[2-(4-hydroxy-4-methylpiperidin-1-yl)pyrimidin-5-yl]-2-[(3R,5S)-3,4,5-trimethylpiperazin-1-yl]phenyl]-1-methyl-6-oxo-4-(trifluoromethyl)pyridine-3-carboxamide]	1.92 nM
C[C@@H]1CN(c2cc(F)c(C3=CCCN(c4nc(C#N)cs4)C3)cc2NC(=O)c2c[nH]c(=O)cc2C(F)(F)F)C[C@H](C)N1C [Example 642, N-[5-[1-(4-cyano-1,3-thiazol-2-yl)-3,6-dihydro-2H-pyridin-5-yl]-4-fluoro-2-[(3R,5S)-3,4,5-trimethylpiperazin-1-yl]phenyl]-6-oxo-4-(trifluoromethyl)-1H-pyridine-3-carboxamide]	1.3 nM
C[C@@H]1CN(c2cc(F)c(C3=CCCN(c4ncco4)C3)cc2NC(=O)c2c[nH]c(=O)cc2C(F)(F)F)C[C@H](C)N1C [Example 643, N-[4-fluoro-5-[1-(1,3-oxazol-2-yl)-3,6-dihydro-2H-pyridin-5-yl]-2-[(3R5S)-3,4,5-trimethylpiperazin-1-yl]phenyl]-6-oxo-4-(trifluoromethyl)-H-pyridine-3-carboxamide]	1.26 nM
COc1cnc(N2CCC=C(c3cc(NC(=O)c4c[nH]c(=O)cc4C(F)F)c(N4C[C@@H](C)N(C)[C@@H](C)C4)cc3F)C2)nc1 [Example 645, 4-(difluoromethyl)-N-[4-fluoro-5-[1-(5-methoxypyrimidin-2-yl)-3,6-dihydro-2H-pyridin-5-yl]-2-[(3R,5S)-3,4,5-trimethylpiperazin-1-yl]phenyl]-6-oxo-1H-pyridine-3-carboxamide]	1.41 nM

Other lines, results leading:

Kd	SMILES
2.22 nM	C[C@H]1CN(c2cc(F)c(C3=CCN(C(=O)N4CCCC4)C3)cc2NC(=O)c2c[nH]c(=O)cc2C(F)F)CCN1C [Example 629, (S)-4-(Sifluoromethyl)-N-(2-(3,4-dimethylpiperazin-1-yl)-4-fluoro-5-(1-(pyrrolidine-1-carbonyl)-2,5-dihydro-1H-pyrrol-3-yl)phenyl)-6-oxo-1,6-dihydropyridine-3-carboxamide]
1.98 nM	C[C@@H]1CN(c2cc(F)c(C3=CCN(C(=O)OC4(C)CCC4)C3)cc2NC(=O)c2c[nH]c(=O)cc2C(F)F)C[C@H](C)N1C [Example 630, 1-Methylcyclobutyl 3-(5-(4-(difluoromethyl)-6-oxo-1,6-dihydropyridine-3-carboxamido)-2-fluoro-4-((3S,5R)-3,4,5-trimethylpiperazin-1-yl)phenyl)-2,5-dihydro-1H-pyrrole-1-carboxylate]
2.65 nM	C[C@H]1CN(c2cc(F)c(C3=CCN(C(=O)OC4(C)CCC4)C3)cc2NC(=O)c2c[nH]c(=O)cc2C(F)F)CCN1C [Example 631, 1-Methylcyclobutyl (S)-3-(5-(4-(difluoromethyl)-6-oxo-1,6-dihydropyridine-3-carboxamido)-4-(3,4-dimethylpiperazin-1-yl)-2-fluorophenyl)-2,5-dihydro-1H-pyrrole-1-carboxylate]
2.26 nM	C[C@@H]1CN(c2cc(F)c(C3=CCN(C(=O)OC4CC(F)(F)C4)C3)cc2NC(=O)c2c[nH]c(=O)cc2C(F)F)C[C@H](C)N1C [Example 637, 3,3-Difluorocyclobutyl 3-(5-(4-(difluoromethyl)-6-oxo-1,6-dihydropyridine-3-carboxamido)-2-fluoro-4-((3S,5R)-3,4,5-trimethylpiperazin-1-yl)phenyl)-2,5-dihydro-1H-pyrrole-1-carboxylate]
2.27 nM	C[C@H]1CN(c2cc(F)c(C3=CCN(C(=O)OC4CC(F)(F)C4)C3)cc2NC(=O)c2c[nH]c(=O)cc2C(F)F)CCN1C [Example 638, 3,3-Difluorocyclobutyl (S)-3-(5-(4-(difluoromethyl)-6-oxo-1,6-dihydropyridine-3-carboxamido)-4-(3,4-dimethylpiperazin-1-yl)-2-fluorophenyl)-2,5-dihydro-1H-pyrrole-1-carboxylate]
4.97 nM	C[C@H]1CN(c2cc(F)c(C3=CCN(c4cnc(C#N)nc4)CC3)cc2NC(=O)c2c[nH]c(=O)cc2C(F)F)CCN1C [Example 639, (S)—N-(5-(1-(2-cyanopyrimidin-5-yl)-1,2,3,6-tetrahydropyridin-4-yl)-2-(3,4-dimethylpiperazin-1-yl)-4-fluorophenyl)-4-(difluoromethyl)-6-oxo-1,6-dihydropyridine-3-carboxamide]
1.32 nM	C[C@@H]1CN(c2cc(F)c(C3=CCCN(c4ncccn4)C3)cc2NC(=O)c2c[nH]c(=O)cc2C(F)F)C[C@H](C)N1C [Example 644, 4-(difluoromethyl)-N-[4-fluoro-5-(1-pyrimidin-2-yl-3,6-dihydro-2H-pyridin-5-yl)-2-[(3R,5S)-3,4,5-trimethylpiperazin-1-yl]phenyl]-6-oxo-1H-pyridine-3-carboxamide]
1.41 nM	C[C@@H]1CN(c2cc(F)c(C3=CCN(c4ncc(C=O)cn4)CC3)cc2NC(=O)c2c[nH]c(=O)cc2C(F)F)C[C@H](C)N1C [Example 646, 4-(difluoromethyl)-N-[4-fluoro-5-[1-(5-formylpyrimidin-2-yl)-3,6-dihydro-2H-pyridin-4-yl]-2-[(3R,5S)-3,4,5-trimethylpiperazin-1-yl]phenyl]-6-oxo-1H-pyridine-3-carboxamide]
